The values below come from US10077436B2, “Beta-glucosidase enzymes for increased biomass saccharification” (Edeniq, Inc., priority 2013, dated 2018).

A word on the Km: it is the concentration of substrate that gives half-maximal velocity.

Common to all, as to assay type: biochemical
For assay [1], the system named is S-BG (Novozymes SP188 from Sigma), commercial beta-glucosidase. The assay can be described thus: BG kinetics, cellobiose hydrolysis assay (HPLC) with glucose as competitive inhibitor, S-BG. Conditions: cellobiose substrate, pH 4.8, 50° C. The source says: (§1) The kinetic properties of beta glucosidase are important for cellulosic hydrolysis, since in commercial situations a wide range of substrate concentrations and different product inhibition conditions will be encountered. In this example, a Michaelis-Menten kinetics model was used to describe BG kinetics. To determine these kinetic properties, BG activity assays using standard substrates pNPG and cellobiose were employed. yEdQ745-BG (wild type) and yEdQ885-BG (improved), were compared with two commercial BGs, A-BG (Accellerase®) BG from Dupont) and S-BG (Novozymes SP188 from Sigma).
(§2) BG activity assay using cellobiose is the other standard assay to measure BG or cellobiase activity, which utilizes hydrolysis of cellobiose by cellobiase into two molecules of glucose, the last step of enzymatic hydrolysis of cellulose. One cellobiase unit (commonly termed as CBU) is defined as the amount of enzyme that converts […] of cellobiose or produces 2 μmol of glucose per min. Briefly, to determine BG activity, 25 μL of diluted enzyme in 50 mM citrate buffer (pH 4.8) equilibrated to 50° C. was mixed with 25 μL cellobiose (or cellobiose/glucose mixture for the kinetic study) to start the reaction. The mixture was incubated at 50° C. for 10 min, and the reaction was terminated by incubating the mixture at 99° C. for 5 min. Different methods are available to measure the glucose produced in the assays. For the kinetic study, HPLC was used.
To determine kinetic properties using cellobiose substrate, duplicate assays with cellobiose concentrations ranging from 0.47 to 15 mM and glucose concentrations of 0, 0.9, 4.5, 6.75, and 8.1 (for A-BG) or 9 (for all the other three BGs) g/L were performed. As for pNPG substrate, the range of cellobiose substrate concentration was chosen to show detectable activity at the lowest substrate concentration and saturation stage at high substrate concentration. However, in contrast to the pNPG substrate, when there was still some activity left at glucose concentration up to 36 g/L, most of the BG activity was lost at an inhibitor level of 9 g/L when cellobiose substrate was used. […] It should also be noted that colorimetric glucose assay cannot provide activity results for inhibitory glucose levels above 0.9 g/L after several trials. Therefore, HPLC measurements were used for kinetic studies using cellobiose substrate. It should be pointed out that the HPLC method may not be sensitive enough either to capture BG activity under more severe glucose inhibition conditions than 9 g/L of glucose. Moreover, theoretically there are two ways to measure BG activity by HPLC when cellobiose is used as the substrate: tracking consumption of cellobiose or tracking production of glucose. However, as shown by the example of one set of results from S-BG in Table 3, tracking glucose is problematic due to measurement sensitivity. In Table 3, A % is defined as follows and is an indicator of measurement sensitivity, since the difference of substrate or product concentrations before and after reaction was used to determine BG activity. Δ%=(start conc. of cellobiose−end conc. of cellobiose)/start conc. of cellobiose×100% (3) Δ%=(end conc. of glucose−start conc. of glucose)/start conc. of glucose×100% (4)
With increasing inhibitor (glucose) level, Δ% is decreasing. For the case of tracking glucose, Δ% was too small to be reliable when 4.5 g/L of glucose was added at the beginning. […] Thus, the approach of tracking cellobiose was chosen due to its higher detection sensitivity. In the substrate range used to determine kinetic parameters (0.47 to 30 mM for A-BG and 0.47 to 15 mM for the other three BGs), the detection sensitivity is reasonable.
A similar simultaneous nonlinear regression method based on the competitive inhibition equation expressed in Equation (1) was used to determine kinetic parameters of BG towards cellobiose. […]

Assay [2] deals with A-BG (Accellerase® BG from DuPont), commercial beta-glucosidase. The assay can be described thus: BG kinetics, cellobiose hydrolysis assay (HPLC) with glucose as competitive inhibitor, A-BG. To be noted: cellobiose substrate, pH 4.8, 50° C.
Description: (§3) The kinetic properties of beta glucosidase are important for cellulosic hydrolysis, since in commercial situations a wide range of substrate concentrations and different product inhibition conditions will be encountered. In this example, a Michaelis-Menten kinetics model was used to describe BG kinetics.
as §2
To determine kinetic properties using cellobiose substrate, duplicate assays with cellobiose concentrations ranging from 0.47 to 15 mM and glucose concentrations of 0, 0.9, 4.5, 6.75, and 8.1 (for A-BG) or 9 (for all the other three BGs) g/L were performed. As for pNPG substrate, the range of cellobiose substrate concentration was chosen to show detectable activity at the lowest substrate concentration and saturation stage at high substrate concentration. […] Moreover, theoretically there are two ways to measure BG activity by HPLC when cellobiose is used as the substrate: tracking consumption of cellobiose or tracking production of glucose. […] In Table 3, A % is defined as follows and is an indicator of measurement sensitivity, since the difference of substrate or product concentrations before and after reaction was used to determine BG activity. Δ%=(start conc. of cellobiose−end conc. of cellobiose)/start conc. of cellobiose×100% (3) Δ%=(end conc. of glucose−start conc. of glucose)/start conc. of glucose×100% (4)
A similar simultaneous nonlinear regression method based on the competitive inhibition equation expressed in Equation (1) was used to determine kinetic parameters of BG towards cellobiose.
The specific activity used here was determined by the initial velocity approach that is required by implementing Michaelis-Menten model (Copeland, 2000). The specific activity was determined by measuring consumption of cellobiose in the first 10 min of reaction and was expressed as μmol min^−1 mg^−1, where mg^−1 means per mg of total protein. The relative activity was determined based on the maximum activity obtained in the absence of initial glucose inhibition.
(§4) The above experimental data were fit in the competitive inhibition model as expressed in Equation (1) by simultaneous nonlinear regression.

Assay [3] deals with S-BG (Novozymes SP188 from Sigma), commercial beta-glucosidase. The assay can be described thus: BG kinetics, pNPG hydrolysis assay with glucose as competitive inhibitor, S-BG. To be noted: pNPG substrate, pH 5.0, 50° C.
Description: as §1
(§5) BG activity assay using pNPG is one of the two commonly used standard assays to measure BG activity, which utilizes hydrolysis of p-nitrophenyl-β-D-glucopyranoside (pNPG) by BG into a yellow colored product, p-nitrophenol (pNP), that has a strong absorbance at 405 nm. One pNPG unit is defined as the amount of enzyme that produces 1 μmol of pNP per min. Briefly, to determine BG activity, 25 μL of diluted enzyme in 200 mM sodium acetate buffer (pH 5.0) was mixed with 25 μL of the same buffer and 25 μL of RO water (or glucose solution for the kinetic study) and the mixture was preincubated at 50° C. for 5 min. The reaction was initiated by adding 25 μL of 10 mM pNPG in 200 mM sodium acetate buffer (pH 5.0) and the mixture was incubated at 50° C. for 10 min. The reaction was then terminated by adding 100 μL of 0.25 M sodium carbonate, and the amount of pNP produced was determined by measuring absorbance at 405 nm using a predetermined calibration curve.
The range of substrate concentration was chosen to show detectable activity at the lowest concentration and saturation stage at high substrate concentration. The upper limit of inhibitor (glucose) level was chosen to get as close as possible to the real conditions during saccharification (˜4% w/v glucose) and have a detectable residual activity.
(§6) To determine the kinetic properties, a competitive inhibition mechanism was hypothesized as proposed in the literature (Chauve et al, 2010; Krogh et al, 2010). The Michaelis-Menten equation with the competitive inhibition term can be expressed in Equation (1), where [S] is the substrate concentration (mM), [I] is the inhibitor concentration (mM), V is the rate of product formation (mM/min), Vmax is the maximal rate of product formation (mM/min), Km is the Michaelis-Menten constant and Ki is the inhibition constant. The turnover number, Kcat, can be calculated by Equation (2), where [Et] is the total amount of enzyme.
(§7) Conventionally, linearization methods can be used to determine the kinetic parameters based on Equation (1). Three common linear plots used are Lineweaver-Burke, Eadie-Hofstee and Hanes plots (Rogers and Gibon, 2009). However, these linearized versions of the Michaelis-Menten equation often produce substantial errors in parameter estimation. […] All of the activity data at different substrate levels and different inhibitor levels were fit simultaneously according to the full nonlinear equation for competitive enzyme inhibition as expressed in Equation (1). Thus, Vmax, Km and Ki can be determined simultaneously from this fitting process, and Km/Ki can then be calculated. Kcat can be obtained by Equation (2) and Kcat/Km can be calculated accordingly.
The above experimental data were fit in the competitive inhibition model as expressed in Equation (1) by simultaneous nonlinear regression. The order of maximum velocity (Vmax) is A-BG>yEdQ885-BG>S-BG≈yEdQ745-BG. […] Nevertheless, the in-house BGs have much higher dissociation constant for inhibitor (Ki), indicating higher tolerance to product inhibition. Consistent with Vmax, the order of turnover number (Kcat) is A-BG>yEdQ885-BG>S-BG≈yEdQ745-BG. With much lower Km and much higher Kcat, A-BG has a considerably higher catalytic efficiency (Kcat/Km) than the other enzymes. The catalytic efficiency of S-BG and yEdQ885-BG is quite close, which is higher than that of yEdQ745-BG. […]

Assay [4] deals with A-BG (Accellerase® BG from DuPont), commercial beta-glucosidase. The assay can be described thus: BG kinetics, pNPG hydrolysis assay with glucose as competitive inhibitor, A-BG. To be noted: pNPG substrate, pH 5.0, 50° C. The protocol: as §3
as §5, with “One” for “BG activity assay using pNPG is one of the two commonly used standard assays to measure BG activity, which utilizes hydrolysis of p-nitrophenyl-β-D-glucopyranoside (pNPG) by BG into a yellow colored product, p-nitrophenol (pNP), that has a strong absorbance at 405 nm. One”
The range of substrate concentration was chosen to show detectable activity at the lowest concentration and saturation stage at high substrate concentration.
as §6, §7, §4

For `OC[C@H]1O[C@@H](O[C@H]2[C@H](O)[C@@H](O)C(O)O[C@@H]2CO)[C@H](O)[C@@H](O)[C@@H]1O` (stereo partly shown) [cellobiose], in assay [1], the Kcat came to 15.54 s⁻¹, the Kcat/Km is 9773.7 M⁻¹ s⁻¹, the Km was 1590 ± 410 µM and the Vmax was 7.77 ± 0.56 units/mg. For the same compound, in assay [2], the Kcat came out at 67.803 s⁻¹, the Kcat/Km is 10336 M⁻¹ s⁻¹, the Km is 6560 ± 890 µM and the Vmax amounted to 51.89 ± 2.53 units/mg.

As for `O=[N+]([O-])c1ccc(O[C@@H]2O[C@H](CO)[C@@H](O)[C@H](O)[C@H]2O)cc1` [pNPG, p-nitrophenyl-β-D-glucopyranoside], in assay [3], the Kcat amounted to 8.4 s⁻¹, the Kcat/Km worked out at 20000 M⁻¹ s⁻¹, the Km was 420 ± 60 µM and the Vmax is 4.20 ± 0.14 U/mg. Moreover, in assay [4], the Kcat turned out to be 44.9232 s⁻¹, the Kcat/Km stood at 453769.7 M⁻¹ s⁻¹, the Km stood at 99 ± 12 µM and the Vmax came out at 34.38 ± 0.67 U/mg.
